The target of the assay is human Nav1.8 (Homo sapiens (Human), UniProt Q9Y5Y9). Description: Nav1.8 Qube® Assay (automated 384-well patch-clamp). Format: cell-based. As to conditions: human Nav1.8 channels stably expressed in HEK 293 cells. From the text: Qube® Assay Experimental Procedure

The structures appear in SMILES notation.

Chain of human Nav1.8 (Q9Y5Y9 whole entry): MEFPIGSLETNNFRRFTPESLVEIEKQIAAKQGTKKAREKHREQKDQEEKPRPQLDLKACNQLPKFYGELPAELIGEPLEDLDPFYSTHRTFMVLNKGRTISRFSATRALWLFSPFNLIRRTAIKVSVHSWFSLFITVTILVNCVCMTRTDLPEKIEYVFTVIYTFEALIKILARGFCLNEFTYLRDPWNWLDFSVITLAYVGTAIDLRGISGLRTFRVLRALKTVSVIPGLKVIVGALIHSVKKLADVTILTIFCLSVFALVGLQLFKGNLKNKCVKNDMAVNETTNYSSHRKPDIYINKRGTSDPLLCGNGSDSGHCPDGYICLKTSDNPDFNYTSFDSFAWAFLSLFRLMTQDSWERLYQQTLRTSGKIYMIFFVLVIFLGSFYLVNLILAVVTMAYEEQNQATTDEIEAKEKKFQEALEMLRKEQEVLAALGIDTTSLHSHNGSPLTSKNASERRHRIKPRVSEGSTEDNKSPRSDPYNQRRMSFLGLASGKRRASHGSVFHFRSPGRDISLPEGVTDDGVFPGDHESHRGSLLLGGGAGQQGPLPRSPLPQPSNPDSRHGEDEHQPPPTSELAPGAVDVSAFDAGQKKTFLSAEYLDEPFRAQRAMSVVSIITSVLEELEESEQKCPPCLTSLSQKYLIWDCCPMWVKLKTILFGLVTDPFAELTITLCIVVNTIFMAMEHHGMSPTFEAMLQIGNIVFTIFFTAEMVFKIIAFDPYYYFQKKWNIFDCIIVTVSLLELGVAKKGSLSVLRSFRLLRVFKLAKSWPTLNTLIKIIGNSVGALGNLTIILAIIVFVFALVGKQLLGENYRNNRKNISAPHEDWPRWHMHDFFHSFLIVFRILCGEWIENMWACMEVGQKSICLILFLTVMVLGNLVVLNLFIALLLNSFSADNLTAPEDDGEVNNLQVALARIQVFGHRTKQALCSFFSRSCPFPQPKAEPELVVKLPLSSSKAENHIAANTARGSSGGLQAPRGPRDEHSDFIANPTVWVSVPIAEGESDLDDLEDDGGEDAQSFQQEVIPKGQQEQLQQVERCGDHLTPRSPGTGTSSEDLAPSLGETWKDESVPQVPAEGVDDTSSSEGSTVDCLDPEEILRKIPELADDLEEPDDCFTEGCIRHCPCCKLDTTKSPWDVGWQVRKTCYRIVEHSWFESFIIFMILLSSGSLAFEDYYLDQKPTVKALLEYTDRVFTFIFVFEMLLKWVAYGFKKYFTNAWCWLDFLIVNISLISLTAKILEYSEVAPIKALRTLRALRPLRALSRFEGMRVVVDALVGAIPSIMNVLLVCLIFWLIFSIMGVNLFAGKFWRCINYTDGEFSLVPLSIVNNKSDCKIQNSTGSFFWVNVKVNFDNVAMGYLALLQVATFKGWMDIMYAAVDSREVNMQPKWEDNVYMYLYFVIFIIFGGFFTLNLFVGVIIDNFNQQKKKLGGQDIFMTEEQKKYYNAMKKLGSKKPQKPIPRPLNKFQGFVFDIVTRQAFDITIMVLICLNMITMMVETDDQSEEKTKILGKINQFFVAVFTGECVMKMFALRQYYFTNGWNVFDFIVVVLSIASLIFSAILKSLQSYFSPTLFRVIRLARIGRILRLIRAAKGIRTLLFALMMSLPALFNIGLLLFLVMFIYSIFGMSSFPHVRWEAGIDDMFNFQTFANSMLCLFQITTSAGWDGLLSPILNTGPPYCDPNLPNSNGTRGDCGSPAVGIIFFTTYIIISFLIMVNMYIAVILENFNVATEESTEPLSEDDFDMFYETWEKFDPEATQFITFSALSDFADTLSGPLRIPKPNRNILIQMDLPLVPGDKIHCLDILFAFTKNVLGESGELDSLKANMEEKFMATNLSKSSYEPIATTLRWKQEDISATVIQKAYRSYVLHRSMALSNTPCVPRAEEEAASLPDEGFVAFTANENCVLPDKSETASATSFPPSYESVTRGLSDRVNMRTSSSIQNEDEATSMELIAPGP

`O=C1NC[C@@H](C(=O)NC(c2ccc(Cl)cc2)c2ccc(OC(F)F)nc2)O1` (stereo partly drawn) [Example 36, (5S)-N-((4-chlorophenyl)(6-(difluoromethoxy)pyridin-3-yl)methyl)-2-oxooxazolidine-5-carboxamide] displayed an IC50 of 69 nM. For the compound `O=C1NC[C@@H](C(=O)NC(c2ccc(Cl)cc2)C2CCC(F)(F)C2)O1` (single isomer, unassigned) [Example 57B, (S)-N-((R or S)-(4-chlorophenyl)((R or S)-3,3-difluorocyclopentyl)methyl)-2-oxooxazolidine-5-carboxamide], the IC50 worked out at 5720 nM. `O=C1NC[C@@H](C(=O)NC(c2ccc(Cl)cc2)c2ccc(C(F)(F)F)cn2)O1` (single isomer, unassigned) [Example 37A, (S)-N-((R or S)-(4-chlorophenyl)(5-(trifluoromethyl)pyridin-2-yl)methyl)-2-oxooxazolidine-5-carboxamide] had an IC50 of 113 nM.

In turn, `O=C1NC[C@@H](C(=O)NC(c2ccc(Cl)cc2)c2ccc(F)cn2)O1` (single isomer, unassigned) [Example 23A, (S)-N-((R or S)-(4-chlorophenyl)(5-fluoropyridin-2-yl)methyl)-2-oxooxazolidine-5-carboxamide] gave an IC50 of 1350 nM. `O=C1NC[C@@H](C(=O)NC(c2ccc(Cl)cc2)c2n[nH]c3ccccc23)O1` (single isomer, unassigned) [Example 15B, (S)-N-((R or S)-(4-chlorophenyl)(1H-indazol-3-yl)methyl)-2-oxooxazolidine-5-carboxamide]: the IC50 came out at 58 nM. In the case of `CC(C)(C)c1csc(C(NC(=O)[C@@H]2CNC(=O)O2)c2ccc(Cl)cc2)n1` (single isomer, unassigned) [Example 39A, (S)-N-((R or S)-(4-(tert-butyl)thiazol-2-yl)(4-chlorophenyl)methyl)-2-oxooxazolidine-5-carboxamide], the IC50 turned out to be 5.1 nM.

`N#Cc1ccc(C(NC(=O)[C@@H]2CNC(=O)O2)c2cnc(C(F)(F)F)c(Cl)c2)cc1Cl` (single isomer, unassigned) [Example 54A, (S)-N-((R or S)-(3-chloro-4-cyano-phenyl)(5-chloro-6-(trifluoromethyl)pyridin-3-yl)methyl)-2-oxooxazolidine-5-carboxamide]: half-maximal inhibition (IC50) was put at 1.7 nM. Compared with the last compound, the IC50 is about 3-fold lower. Next, `O=C1NC[C@@H](C(=O)NC(c2ccc(Cl)cc2)C2CCCCCC2)O1` (stereo partly drawn) [Example 45, (5S)-N-((4-chlorophenyl)(cyclo-heptyl)methyl)-2-oxooxazolidine-5-carboxamide]: 87 nM; `O=C1NC[C@@H](C(=O)NC(c2ccc(OC(F)(F)F)c(Cl)c2)c2ccnc(C(F)(F)F)n2)O1` (single isomer, unassigned) [Example 52B, (S)-N-((R or S)-(3-chloro-4-(trifluoromethoxy)phenyl)(2-(trifluoro-methyl)pyrimidin-4-yl)methyl)-2-oxooxazolidine-5-carboxamide]: 13 nM; `O=C1NC[C@@H](C(=O)NC(c2ccc(F)c(Cl)c2)c2cc(C(F)(F)F)[nH]n2)O1` (single isomer, unassigned) [Example 5A, (S)—N—((R or S)-(3-chloro-4-fluorophenyl)(5-(trifluoromethyl)-1H-pyrazol-3-yl)methyl)-2-oxooxazolidine-5-carboxamide]: 4.8 nM. Next, `O=C1NC[C@@H](C(=O)NC(c2ccc(F)c(Cl)c2)c2ccc(F)c(OCC(F)(F)F)n2)O1` (single isomer, unassigned) [Example 1A, (S)—N—((R or S)-(3-chloro-4-fluorophenyl)(5-fluoro-6-(2,2,2-trifluoroethoxy)pyridin-2-yl)methyl)-2-oxooxazolidine-5-carboxamide]: 46 nM. Next, `O=C1NC[C@@H](C(=O)NC(c2ccc(Cl)cc2)c2cccc(F)c2F)O1` (single isomer, unassigned) [Example 29A, (S)-N-((R or S)-(4-chlorophenyl)(2,3-difluorophenyl)methyl)-2-oxooxazolidine-5-carboxamide]: 14 nM; `O=C1NC[C@@H](C(=O)NC(c2ccc(F)c(Cl)c2)c2csc(C(F)(F)F)n2)O1` (single isomer, unassigned) [Example 44B, (S)—N—((R or S)-(3-chloro-4-fluorophenyl)(2-(trifluoro-methyl)thiazol-4-yl)methyl)-2-oxooxazolidine-5-carboxamide]: 17 nM. The compound `O=C1NC[C@@H](C(=O)NC(c2ccc(Cl)cc2)c2coc(C(F)(F)F)n2)O1` (single isomer, unassigned) [Example 18B, (S)-N-((R or S)-(4-chlorophenyl)(2-(trifluoromethyl)oxazol-4-yl)methyl)-2-oxooxazolidine-5-carboxamide] showed an IC50 of 272 nM. Next, `O=C1NC[C@@H](C(=O)NC(c2ccc(Cl)cc2)c2cccc(F)c2F)O1` (single isomer, unassigned) [Example 29B, (S)-N-((R or S)-(4-chlorophenyl)(2,3-difluorophenyl)methyl)-2-oxooxazolidine-5-carboxamide]: 74 nM; `O=C1NC[C@@H](C(=O)NC(c2ccc(Cl)cc2)c2n[nH]c3ccccc23)O1` (single isomer, unassigned) [Example 15A, (S)-N-((R or S)-(4-chlorophenyl)(1H-indazol-3-yl)methyl)-2-oxooxazolidine-5-carboxamide]: 57 nM. The result for `O=C1NC[C@@H](C(=O)NC(c2cncc(Cl)c2)c2ccc(F)c(Cl)c2)O1` (single isomer, unassigned) [Example 13B, (S)-N-((R or S)-(3-chloro-4-fluorophenyl)(5-chloropyridin-3-yl)methyl)-2-oxooxazolidine-5-carboxamide] reads 190 nM; that for `O=C1NC[C@@H](C(=O)NC(c2ccc(Cl)cc2)c2ccc(Cl)c(C(F)(F)F)n2)O1` (single isomer, unassigned) [Example 2B, (S)—N—((R or S)-(5-chloro-6-(trifluoromethyl)pyridin-2-yl)(4-chlorophenyl)methyl)-2-oxooxazolidine-5-carboxamide], 30 nM. The result for `O=C1NC[C@@H](C(=O)NC(c2ccc(Cl)cc2)c2ccc(F)c(Cl)c2)O1` (single isomer, unassigned) [Example 19A, (S)—N—((R or S)-(3-chloro-4-fluorophenyl)(4-chlorophenyl)methyl)-2-oxooxazolidine-5-carboxamide] reads 0.9 nM. As to `O=C1NC[C@@H](C(=O)NC(c2ccc(F)c(Cl)c2)c2ccc(F)c(OCC(F)(F)F)n2)O1` (single isomer, unassigned) [Example 1B, (S)—N—((R or S)-(3-chloro-4-fluorophenyl)(5-fluoro-6-(2,2,2-trifluoroethoxy)pyridin-2-yl)methyl)-2-oxo-oxazolidine-5-carboxamide], the IC50 came out at 4 nM. This IC50 is about 4.4-fold higher than that of the compound before. Take `O=C1NC[C@@H](C(=O)NC(c2cccc(Cl)c2)C2CC2c2ccccc2)O1` (single isomer, unassigned) [Example 26B, (5S)-N-((R or S)-(3-chlorophenyl) ((cis or trans)-2-phenylcyclopropyl)methyl)-2-oxooxazolidine-5-carboxamide]: the IC50 was determined as 70 nM.

What is called IC50 is the concentration that inhibits the measured activity by half.

(Values after patent publication US12516046B2, “2-oxo-oxazolidine-5-carboxamides as NAV1.8 inhibitors” (Merck Sharp & Dohme LLC, priority 2020, dated 2026).)
